Measurements from patent publication US6962930B1, “Compounds, compositions and method suitable for amelioration of withdrawal syndromes and withdrawal-induced brain damage” (Lohocla Research Corporation, priority 1997, dated 2005).
Like-named read-outs stand apart in the source and are kept apart here.

Columns and labels:
[1] = tested on: ethanol withdrawal-induced seizures in C57BL/6 mice; assay: Ethanol withdrawal-induced seizures; type: in vivo; conditions: i.p. at 0700, 1100 and 1400 hours; (±)HA-966 3, 10 or 17 mg/kg; 7-Cl kynurenic acid 10, 17 or 30 mg/kg; carbamazepine 17, 30 or 50 mg/kg
Source text: Male C57BL/6 mice were housed individually. One group of mice were each given a measured amount of liquid diet (BioServ) containing 6.7% ethanol (v/v) and a second, control group of mice each received the same diet with maltodextrin substituted isocalorically for ethanol, as their sole nutrient source for 7 days. A description of such a test can be found in Grant, K. A., et al., “ETHANOL WITHDRAWAL SEIZURES AND THE NMDA RECEPTOR COMPLEX,” Eur. J. Pharmacol., 176 289–296, (1990), the relevant disclosures of which are incorporated herein by reference. Pair-fed mice were given a volume of liquid diet equal to the average volume that the ethanol-fed mice consumed on the previous day. This treatment regimen produces mice that are functionally tolerant to and physically dependent on ethanol. Beginning at 0700 hours on the eighth day of the diet, ethanol-containing diet was replaced with control liquid diet (“withdrawal”).
Withdrawal seizure severity was assessed by measuring the incidence of handling-induced and spontaneous seizures, which were rated on a rating scale of 0 to 4, modified from a rating scale described by Grant, K. A., et al. in the above cited article. The rating scale was as follows: 0, little or no reaction; 1, slight jerkiness upon handling; 2, excitability increasing in magnitude to a clonic-tonic seizure; 3, spontaneous or instantaneous clonic-tonic seizure; 4, death while in a seizure. The mice were rated for seizure severity at 2, 4, 6, 7, 8, 9, 10, 11, 12 and 24 hours after ethanol withdrawal. Groups of ethanol-fed mice were injected intraperitoneally at 0700, 1100 and 1400 hours with saline, 3, 10 or 17 mg/kg (±)HA-966 (FIG. 5A) or 10, 17 or 30 mg/kg 7-Cl kynurenic acid (FIG. 5B).
Male C57BL/6 mice were fed ethanol in a liquid diet and the withdrawal seizure severity was assessed as described in EXAMPLE 5. Groups of ethanol-fed mice received a single injection (i.p.) of either vehicle (4% Tween-80, 0.5% carboxymethylcellulose in 0.9% saline) alone or of 100 mg/kg DCUK-OMe suspended in the vehicle administered at 0900 hours. The results are presented in FIG. 6A as the median withdrawal scores of vehicle-injected (N=14) or DCUK-OMe injected (N=6) mice in which * denotes P<0.05, statistically compared to vehicle-injected mice, in the Mann-Whitney U test. FIG. 6B presents the same data as the total withdrawal score, defined as the area enclosed by the curve connecting median withdrawal scores plotted against time as in FIG. 6A. The mean total withdrawal scores±SEM for the vehicle-injected group and DCUK-OMe-injected groups are plotted in which * denotes P<0.05, statistically compared to vehicle-injected mice, by the Student t-test.

[2] = tested on: naive C57BL/6 mice; assay: Accelerating rotarod, C57BL/6 mice; type: in vivo; conditions: 50 mg/kg i.p., 15 to 120 min after injection
Experimental: Naive C57BL/6 mice were trained to remain on an accelerating rotarod (diameter 3 cm, 0–30 rpm over 5 min) for six consecutive trials. A description of this test for the acute incoordinating/ataxic effects of sedative/hypnotic drugs such as ethanol can be found in Hoffman, P. L., et al., Life Sciences, 41 611–619 (1987), the relevant disclosures of which are incorporated herein by reference.
The amount of time the mice remained on the rotarod during their last trial was used as their “base-line” score. The mice were then treated with saline (n=10) or 50 mg/kg (±)HA-966 (n=5). The length of time the mice remained on the rotarod was redetermined at 15, 30, 60, 90, and 120 min after drug injection (i.p.). Results for each mouse at each time point were expressed as a ratio (percentage) of their pre-injection base-line time.

[3] = target: T1, NR1a/NR2B recombinant receptors (Homo sapiens, UniProt Q05586); assay: NMDA-induced currents in oocytes expressing NR1a/NR2B; type: cell-based; conditions: 100 μM NMDA, 50 μM DCUKA, increasing glycine
T1 construct: expressed in transfected cells; host or cells: Xenopus laevis oocytes, nuclear cDNA injection
Experimental: (§1) Oocytes were obtained from Xenopus laevis frogs (Nasco or Xenopus I) kept in aquarium tanks at 19–21° C., on a 12 hr light/dark cycle. Mature females were anesthetized by immersion for approximately 30 min in a 0.12% 3-aminobenzoic acid ethyl ester solution, a small incision was made in the abdominal wall and a piece of ovary was removed and placed in Modified Barth's solution (MBS; in mM) containing 88 NaCl, 1 KCl, 10 HEPES, 0.82 MgSO4, 2.4 NaHCO3, 0.91 CaCl2, 0.33 Ca(NO3)2 (pH 7.5). To facilitate manual dissection of oocytes, a section of ovary was transferred from MBS to a hypertonic buffer containing 108 mM NaCl, 2 mM KCl, 2 mM EDTA, 10 mM HEPES, pH 7.5 and theca and epithelial layers of mature oocytes (stages V and VI) were removed with surgical forceps. The follicular layer was removed by a 10 min immersion in 0.5 mg/ml of collagenase in buffer containing 83 mM NaCl, 2 mM KCl, 1 mM MgCl2 and 5 mM HEPES.
(§2) Human NR1a, NR2A and NR2B cDNAs in pCDNA-1Amp were transformed and amplified in XL-1 Blue cells and purified with the MaxPrep Qiagen kit. Oocytes were injected with cDNA into the nucleus in the following concentrations: NR1a/2A cDNAs 0.75 ng/30 nl 1:1 ratio, NR1a/2B cDNAs 3.0 ng/30 nl: 1:1 ratio. Injections were made with micropipettes (10 μm tip diameter) connected to a Drummond micropipettor attached to a micromanipulator. After injection, oocytes were individually placed in wells of 96-well microtiter plates containing incubation medium (MBS supplemented with 10 mg/l streptomycin, 10,000 U/l penicillin G, 50 mg/l gentamicin, 2 mM sodium pyruvate, 0.5 mM theophylline) that had been sterilized by passage through a […]. Oocytes were incubated at 19° C. for 2 to 4 days after injection.
(§3) Oocytes were placed in a rectangular chamber (approximately […]) and perfused (2 ml/min) with frog Ringer (in mM) containing 115 NaCl, 2.5 KCl, 1.8 CaCl2, 10 HEPES (pH 7.2). […] Control responses were always measured before and after addition of the DCUKA. […] Data are expressed as the % inhibition of the agonist response obtained in the absence of the drug.

[4] = target: voltage-sensitive sodium channels; assay: [3H]BTX binding to rat cortical synaptosomes
[5] = target: T2, NR1a/NR2A recombinant receptors (Homo sapiens, UniProt Q05586); assay: NMDA-induced currents in oocytes expressing NR1a/NR2A; type: cell-based; conditions: 100 μM NMDA, 50 μM DCUKA, increasing glycine up to 100 μM
T2 construct: expressed in transfected cells; host or cells: Xenopus laevis oocytes, nuclear cDNA injection
Experimental: as §1, §2, §3

[6] = target: T3, strychnine-insensitive glycine binding site on the NMDA receptor (Rattus norvegicus, UniProt P35439); assay: [3H]5,7-DCKA binding to rat cortical membranes; conditions: 20 nM [3H]5,7-DCKA
T3 construct: from tissue; host or cells: rat cerebral cortex, crude synaptic (buffy coat) membranes
Experimental: Male Sprague-Dawley rats were killed, their brains removed, and their cerebral cortices dissected and binding of [^3H]5,7-dichlorokynurenate ([^3H]5,7-DCKA) assayed. [^3H]5,7-DCKA binding assays were performed in crude synaptic membranes prepared by a modification of the method of Jones, et al., J. Pharmacol. Methods, 21 161–168 (1989) the relevant disclosures of which are incorporated herein by reference. The pelleted “buffy coat”fraction was obtained by centrifugation and frozen at about −80° C. for at least 18 hours. On the day that the binding assays were performed, the pelleted membranes were resuspended in 50 mM HEPES-KOH buffer (pH 7.8) containing 0.08% TRITON® X-100. After stirring for about 30 min at about 4° C., the membranes were pelleted by recentrifugation and then washed twice by resuspension in buffer and centrifugation.
Binding assays were performed in 0.5 ml volume using 150–200 μg of tissue, 20 nM [^3H]5,7-DCKA and 3–300 μM DCUKA or MeO-DCUKA or 1–100 μM DCUK-OMe (all concentrations are final concentrations in 0.6% dimethyl sulfoxide (DMSO)). Incubations were performed for about 45 min at about 4° C. followed by termination by centrifugation. Bound radioactivity was quantitated by liquid scintillation spectroscopy. Non-specific binding was defined with 1 mM glycine.

[7] = tested on: heat shock protein (HSP72) in the hippocampus of C57BL/6 mice; assay: KA-induced increase in HSP72, Western blot; type: in vivo; conditions: 100 mg/kg i.p. 30 min before KA 30 mg/kg i.p., hippocampus at 24 hours
Experimental: See, for example, Gonzales, M. F. et al., “HEAT SHOCK PROTEINS AS MARKERS OF NEURAL INJURY,” Mol. Brain Res., 6 93–100 (1989), the relevant portions of which are incorporated herein by reference.
Groups of male C57BL/6 mice separately received either (1) no injections (Naive), (2) KA injections (30 mg/kg, i.p.), (3) 100 mg/kg MeO-DCUKA administered intraperitoneally, or (4) a pretreatment of 100 mg/kg MeO-DCUKA administered (vehicle as in Example 9) intraperitoneally about 30 minutes before receiving an injection of KA (30 mg/kg, i.p.). All of the mice were killed 24 hours later, their brains removed and the hippocampus dissected. HSP72 protein levels were determined in sodium dodecylsulfate (SDS)-solubilized hippocampal lysates by SDS-PAGE electrophoretic separation and subsequent Western blot analysis using antibodies specific for HSP72/73 proteins. Immunoreactive bands were visualized on film using enhanced chemiluminescence and quantitated by image analysis.

[8] = tested on: Swiss-Webster mice; assay: Ethanol-induced loss of righting reflex; type: in vivo; conditions: i.p. 30 minutes before ethanol; DCUK-OMe 100 mg/kg, DZP 1 mg/kg
Experimental: Swiss-Webster mice were pretreated (i.p.) with 100 mg/kg DCUK-OMe or 1 mg/kg diazepam (DZP) (in 5% Tween-80, 20% Intralipid) 30 minutes before receiving an i.p. administration of ethanol (either 2.3 or 3.2 g/kg, 20% v/v in saline.). The duration of the ethanol-induced loss of righting reflex (defined as the inability of the mouse to right itself when placed on its back in a trough) was measured. […] Since withdrawal signs are many times evident in individuals whose blood ethanol levels are dropping but are far from zero, the DCUK compounds would have an advantage over DZP in that the CNS depressant effects of ethanol would not be accentuated by DCUK compounds if the DCUK compounds are used in an alcohol-intoxicated individual.

[9] = tested on: naive Swiss-Webster mice; assay: Accelerating rotarod, Swiss-Webster mice; conditions: i.p.; DCUK-OMe 100 or 500 mg/kg, diazepam 1 mg/kg, carbamazepine 50 mg/kg
[10] = target: T3, strychnine-insensitive glycine binding site on the NMDA receptor; conditions: none* = no displacement at 64 μM carbamazepine; taken from McCabe et al. 1993; cited from earlier work
[11] = depolarizing conditions (135 mM KCl), read-out: IC50 (μM) [3H]BTX binding, values in parentheses
[12] = non-depolarizing conditions, none = no displacement at 100 μM, read-out: IC50 (μM) [3H]BTX binding

| SMILES | ethanol withdrawal seizure severity [1] | IC50 [6] [µM] | IC50 [4, 11] [µM] | IC50 [4, 12] [µM] | other results |
| --- | --- | --- | --- | --- | --- |
| NC1CCN(O)C1=O (racemic) [(±)HA-966, 3-amino-1-hydroxypyrrolidin-2-one] | did not significantly reduce seizure severity |  |  |  | rotarod performance (ataxia/incoordination) [2]: impaired in their ability to remain on the rotarod at all time points tested |
| O=C(O)c1cc(=O)c2c(Cl)cc(Cl)cc2[nH]1 [5,7-DCKA, 5,7-dichlorokynurenate, reference compound] |  | 0.11 |  |  | reversal by glycine of inhibition of NMDA-induced currents [3]: competitively antagonizes NMDA receptors regardless of subunit composition; IC50 (μM) [3H]BTX binding ([4]; non-depolarizing conditions, none = no displacement at 100 μM): none; reversal by glycine of inhibition of NMDA-induced currents [5]: competitively antagonizes NMDA receptors regardless of subunit composition |
| COc1ccccc1N(C(=O)Nc1cc(C(=O)O)nc2cc(Cl)cc(Cl)c12)c1ccccc1 [MeO-DCUKA] |  | 35 | 30 | 64 | KA-induced increase in HSP72 protein levels [7]: prevented |
| CN1C(=O)CN=C(c2ccccc2)c2cc(Cl)ccc21 [diazepam, reference compound] |  |  |  |  | duration of ethanol-induced loss of righting reflex (LORR) [8]: significant (*P<0.05) enhancement; rotarod performance (ataxia/incoordination) [9]: produced significant incoordination |
| NC(=O)N1c2ccccc2C=Cc2ccccc21 [Carbamazepine, carbamazepine, reference compound] | no significant reduction of severity or the duration of the signs of withdrawal |  | 56 | 71 | IC50 (μM) [3H]5,7-DCKA binding [10]: none* |
| O=C(O)c1cc(O)c2ccc(Cl)cc2n1 [7-Cl kynurenic acid] | did not significantly reduce seizure severity |  |  |  |  |
